Reference: ChEMBL document CHEMBL5375952, “Discovery of Novel 8-Hydroxyquinoline Derivatives with Potent In Vitro and In Vivo Antifungal Activity” (J Med Chem, 2023)
≈ marks a conversion by molar mass, not a printed value.

How the values were obtained:
Candida albicans [1] = assay: Antifungal activity against Candida albicans SC5314 assessed as fungal growth inhibition incubated for 48 hrs by broth microdilution method; format: functional
Candida albicans [2] = assay: Antifungal activity against Candida albicans 21 assessed as fungal growth inhibition incubated for 48 hrs by broth microdilution method; format: functional
Candida albicans [3] = assay: Antifungal activity against Candida albicans 22 assessed as fungal growth inhibition incubated for 48 hrs by broth microdilution method; format: functional
Nakaseomyces glabratus [4] = assay: Antifungal activity against Candida glabrata 201 assessed as fungal growth inhibition incubated for 48 hrs by broth microdilution method; format: functional
Nakaseomyces glabratus [5] = assay: Antifungal activity against Candida glabrata 202 assessed as fungal growth inhibition incubated for 48 hrs by broth microdilution method; format: functional
Nakaseomyces glabratus [6] = assay: Antifungal activity against Candida glabrata 205 assessed as fungal growth inhibition incubated for 48 hrs by broth microdilution method; format: functional
Pichia kudriavzevii [7] = assay: Antifungal activity against Candida krusei 68 assessed as fungal growth inhibition incubated for 48 hrs by broth microdilution method; format: functional
Pichia kudriavzevii [8] = assay: Antifungal activity against Candida krusei 477 assessed as fungal growth inhibition incubated for 48 hrs by broth microdilution method; format: functional
Candida parapsilosis [9] = assay: Antifungal activity against Candida parapsilosis 105 assessed as fungal growth inhibition incubated for 48 hrs by broth microdilution method; format: functional; settings: Lodderomyces parapsilosis
Candida parapsilosis [10] = assay: Antifungal activity against Candida parapsilosis 107 assessed as fungal growth inhibition incubated for 48 hrs by broth microdilution method; format: functional; settings: Lodderomyces parapsilosis
Candida parapsilosis [11] = assay: Antifungal activity against Candida parapsilosis 125 assessed as fungal growth inhibition incubated for 48 hrs by broth microdilution method; format: functional; settings: Lodderomyces parapsilosis
Candida tropicalis [12] = assay: Antifungal activity against Candida tropicalis 176 assessed as fungal growth inhibition incubated for 48 hrs by broth microdilution method; format: functional
Candida tropicalis [13] = assay: Antifungal activity against Candida tropicalis 184 assessed as fungal growth inhibition incubated for 48 hrs by broth microdilution method; format: functional
Cryptococcus neoformans [14] = assay: Antifungal activity against Cryptococcus neoformans 443 assessed as fungal growth inhibition incubated for 48 hrs by broth microdilution method; format: functional
Cryptococcus neoformans [15] = assay: Antifungal activity against Cryptococcus neoformans 444 assessed as fungal growth inhibition incubated for 48 hrs by broth microdilution method; format: functional
Cryptococcus neoformans [16] = assay: Antifungal activity against Cryptococcus neoformans 445 assessed as fungal growth inhibition incubated for 48 hrs by broth microdilution method; format: functional
Aspergillus fumigatus [17] = assay: Antifungal activity against Aspergillus fumigatus A assessed as fungal growth inhibition incubated for 48 hrs by broth microdilution method; format: functional
Aspergillus fumigatus [18] = assay: Antifungal activity against Aspergillus fumigatus 7544 assessed as fungal growth inhibition incubated for 48 hrs by broth microdilution method; format: functional
[19] = Cytotoxicity against human Caco-2 cells assessed as cell growth inhibition incubated for 24 hrs by CCK8 assay; format: toxicity, cell-based
Candida albicans [20] = assay: Antifungal activity against Candida albicans 25 assessed as fungal growth inhibition incubated for 48 hrs by broth microdilution method; format: functional
Candida albicans [21] = assay: Antifungal activity against Candida albicans 337 assessed as fungal growth inhibition incubated for 48 hrs by broth microdilution method; format: functional
Candida albicans [22] = assay: Antifungal activity against Candida albicans 338 assessed as fungal growth inhibition incubated for 48 hrs by broth microdilution method; format: functional
[Candida] auris [23] = Antifungal activity against Candida auris 276 assessed as fungal growth inhibition incubated for 48 hrs by broth microdilution method; format: functional; settings: Candidozyma auris
[Candida] auris [24] = Antifungal activity against Candida auris 277 assessed as fungal growth inhibition incubated for 48 hrs by broth microdilution method; format: functional; settings: Candidozyma auris
[Candida] auris [25] = Antifungal activity against Candida auris 278 assessed as fungal growth inhibition incubated for 48 hrs by broth microdilution method; format: functional; settings: Candidozyma auris
[Candida] auris [26] = Antifungal activity against Candida auris CBS 12372 assessed as fungal growth inhibition incubated for 48 hrs by broth microdilution method; format: functional; settings: Candidozyma auris
[Candida] auris [27] = Antifungal activity against Candida auris 888 assessed as fungal growth inhibition incubated for 48 hrs by broth microdilution method; format: functional; settings: Candidozyma auris
Nakaseomyces glabratus [28] = assay: Antifungal activity against Candida glabrata 203 assessed as fungal growth inhibition incubated for 48 hrs by broth microdilution method; format: functional
Nakaseomyces glabratus [29] = assay: Antifungal activity against Candida glabrata 204 assessed as fungal growth inhibition incubated for 48 hrs by broth microdilution method; format: functional
Nakaseomyces glabratus [30] = assay: Antifungal activity against Candida glabrata 222 assessed as fungal growth inhibition incubated for 48 hrs by broth microdilution method; format: functional
Pichia kudriavzevii [31] = assay: Antifungal activity against Candida krusei 471 assessed as fungal growth inhibition incubated for 48 hrs by broth microdilution method; format: functional
Pichia kudriavzevii [32] = assay: Antifungal activity against Candida krusei 474 assessed as fungal growth inhibition incubated for 48 hrs by broth microdilution method; format: functional
Candida parapsilosis [33] = assay: Antifungal activity against Candida parapsilosis 104 assessed as fungal growth inhibition incubated for 48 hrs by broth microdilution method; format: functional; settings: Lodderomyces parapsilosis
Candida parapsilosis [34] = assay: Antifungal activity against Candida parapsilosis ATCC22019 assessed as fungal growth inhibition incubated for 48 hrs by broth microdilution method; format: functional; settings: Lodderomyces parapsilosis
Candida parapsilosis [35] = assay: Antifungal activity against Candida parapsilosis 106 assessed as fungal growth inhibition incubated for 48 hrs by broth microdilution method; format: functional; settings: Lodderomyces parapsilosis
Candida tropicalis [36] = assay: Antifungal activity against Candida tropicalis 172 assessed as fungal growth inhibition incubated for 48 hrs by broth microdilution method; format: functional
Candida tropicalis [37] = assay: Antifungal activity against Candida tropicalis 177 assessed as fungal growth inhibition incubated for 48 hrs by broth microdilution method; format: functional
Candida tropicalis [38] = assay: Antifungal activity against Candida tropicalis 182 assessed as fungal growth inhibition incubated for 48 hrs by broth microdilution method; format: functional
Cryptococcus neoformans [39] = assay: Antifungal activity against Cryptococcus neoformans H99 assessed as fungal growth inhibition incubated for 48 hrs by broth microdilution method; format: functional
Cryptococcus neoformans [40] = assay: Antifungal activity against Cryptococcus neoformans 56992 assessed as fungal growth inhibition incubated for 48 hrs by broth microdilution method; format: functional
Cryptococcus neoformans [41] = assay: Antifungal activity against Cryptococcus neoformans HN1 assessed as fungal growth inhibition incubated for 48 hrs by broth microdilution method; format: functional
Cryptococcus neoformans [42] = assay: Antifungal activity against Cryptococcus neoformans HN2 assessed as fungal growth inhibition incubated for 48 hrs by broth microdilution method; format: functional
Cryptococcus neoformans [43] = assay: Antifungal activity against Cryptococcus neoformans HN2-40 assessed as fungal growth inhibition incubated for 48 hrs by broth microdilution method; format: functional
Cryptococcus neoformans [44] = assay: Antifungal activity against Cryptococcus neoformans HN15 assessed as fungal growth inhibition incubated for 48 hrs by broth microdilution method; format: functional
Cryptococcus neoformans [45] = assay: Antifungal activity against Cryptococcus neoformans HN17 assessed as fungal growth inhibition incubated for 48 hrs by broth microdilution method; format: functional
Cryptococcus neoformans [46] = assay: Antifungal activity against Cryptococcus neoformans HN19 assessed as fungal growth inhibition incubated for 48 hrs by broth microdilution method; format: functional
Cryptococcus neoformans [47] = assay: Antifungal activity against Cryptococcus neoformans HN20 assessed as fungal growth inhibition incubated for 48 hrs by broth microdilution method; format: functional
Cryptococcus neoformans [48] = assay: Antifungal activity against Cryptococcus neoformans BJ3 assessed as fungal growth inhibition incubated for 48 hrs by broth microdilution method; format: functional
[49] = Antifungal activity against Cryptococcus gattii WM178 assessed as fungal growth inhibition incubated for 48 hrs by broth microdilution method; format: functional, Cryptococcus gattii VGI
[50] = Antifungal activity against Cryptococcus gattii WM179 assessed as fungal growth inhibition incubated for 48 hrs by broth microdilution method; format: functional, Cryptococcus gattii VGI
[51] = Antifungal activity against Cryptococcus gattii E566 assessed as fungal growth inhibition incubated for 48 hrs by broth microdilution method; format: functional, Cryptococcus gattii VGI
[52] = Antifungal activity against Cryptococcus gattii SCZ20024 assessed as fungal growth inhibition incubated for 48 hrs by broth microdilution method; format: functional, Cryptococcus gattii VGI
[53] = Antifungal activity against Cryptococcus gattii SCZ20031 assessed as fungal growth inhibition incubated for 48 hrs by broth microdilution method; format: functional, Cryptococcus gattii VGI

Which results are given for `OC(Cn1cncn1)(Cn1cncn1)c1ccc(F)cc1F` [FLUCONAZOLE]?
MIC (Candida albicans [1]): 0.5 µg/mL (≈ 1.63 µM); MIC (Candida albicans [2]): 0.5 µg/mL (≈ 1.63 µM); MIC (Candida albicans [3]): 0.5 µg/mL (≈ 1.63 µM); MIC (Nakaseomyces glabratus [4]): 1 µg/mL (≈ 3.27 µM); MIC (Nakaseomyces glabratus [5]): 1 µg/mL (≈ 3.27 µM); MIC (Nakaseomyces glabratus [6]): 1 µg/mL (≈ 3.27 µM); MIC (Pichia kudriavzevii [7]): 0.25 µg/mL (≈ 0.816 µM); MIC (Pichia kudriavzevii [8]): 0.25 µg/mL (≈ 0.816 µM); MIC (Candida parapsilosis [9]): > 64 µg/mL; MIC (Candida parapsilosis [10]): > 64 µg/mL; MIC (Candida parapsilosis [11]): > 64 µg/mL; MIC (Candida tropicalis [12]): 2 µg/mL (≈ 6.53 µM); MIC (Candida tropicalis [13]): 2 µg/mL (≈ 6.53 µM); MIC (Cryptococcus neoformans [14]): 8 µg/mL (≈ 26.1 µM); MIC (Cryptococcus neoformans [15]): 8 µg/mL (≈ 26.1 µM); MIC (Cryptococcus neoformans [16]): 8 µg/mL (≈ 26.1 µM); MIC (Aspergillus fumigatus [17]): > 64 µg/mL; MIC (Aspergillus fumigatus [18]): > 64 µg/mL; IC50 at 24 h [19]: > 64 µg/mL; MIC (Candida albicans [20]): 0.5 µg/mL (≈ 1.63 µM); MIC (Candida albicans [21]): 0.25 µg/mL (≈ 0.816 µM); MIC (Candida albicans [22]): 0.5 µg/mL (≈ 1.63 µM); MIC ([Candida] auris [23]): 2 µg/mL (≈ 6.53 µM); MIC ([Candida] auris [24]): 4 µg/mL (≈ 13.1 µM); MIC ([Candida] auris [25]): > 64 µg/mL; MIC ([Candida] auris [26]): > 64 µg/mL; MIC ([Candida] auris [27]): > 64 µg/mL; MIC (Nakaseomyces glabratus [28]): 0.125 µg/mL (≈ 0.408 µM); MIC (Nakaseomyces glabratus [29]): 1 µg/mL (≈ 3.27 µM); MIC (Nakaseomyces glabratus [30]): 1 µg/mL (≈ 3.27 µM); MIC (Pichia kudriavzevii [31]): > 64 µg/mL; MIC (Pichia kudriavzevii [32]): > 64 µg/mL; MIC (Candida parapsilosis [33]): 0.5 µg/mL (≈ 1.63 µM); MIC (Candida parapsilosis [34]): 0.5 µg/mL (≈ 1.63 µM); MIC (Candida parapsilosis [35]): 0.5 µg/mL (≈ 1.63 µM); MIC (Candida tropicalis [36]): 0.125 µg/mL (≈ 0.408 µM); MIC (Candida tropicalis [37]): 2 µg/mL (≈ 6.53 µM); MIC (Candida tropicalis [38]): 0.125 µg/mL (≈ 0.408 µM); MIC (Cryptococcus neoformans [39]): 8 µg/mL (≈ 26.1 µM); MIC (Cryptococcus neoformans [40]): 4 µg/mL (≈ 13.1 µM); MIC (Cryptococcus neoformans [41]): 4 µg/mL (≈ 13.1 µM); MIC (Cryptococcus neoformans [42]): 4 µg/mL (≈ 13.1 µM); MIC (Cryptococcus neoformans [43]): 8 µg/mL (≈ 26.1 µM); MIC (Cryptococcus neoformans [44]): 4 µg/mL (≈ 13.1 µM); MIC (Cryptococcus neoformans [45]): 16 µg/mL (≈ 52.2 µM); MIC (Cryptococcus neoformans [46]): 8 µg/mL (≈ 26.1 µM); MIC (Cryptococcus neoformans [47]): 2 µg/mL (≈ 6.53 µM); MIC (Cryptococcus neoformans [48]): 16 µg/mL (≈ 52.2 µM); MIC [49]: 4 µg/mL (≈ 13.1 µM); MIC [50]: 4 µg/mL (≈ 13.1 µM); MIC [51]: 2 µg/mL (≈ 6.53 µM); MIC [52]: 4 µg/mL (≈ 13.1 µM); MIC [53]: 4 µg/mL (≈ 13.1 µM)
